Experimental data as given in patent publication US20260234144A1 (TAY THERAPEUTICS LIMITED, priority 2023, published 2026).

System: R223X stop codon in the mutated luciferase gene, ADXC8 luciferase reporter cell line
Experiment: cells
Assay type: cell-based
Conditions: 24 h, ADXC8 cells, 24 hours; for Emax: read-out: Fold Over Control, maximum fold response relative to 200 μM G418; for EC (100% of 200 uM G418 response): read-out: pC100%, negative logarithm of the concentration giving the same response as 200 μM G418

SMILES	Emax [%]	EC (100% of 200 uM G418 response) [µM]
Cc1cc(C)c2c(N)nc(NCCCN3CCCCC3C)nc2n1 (centres unmarked) [Example 150]	100 to 3000	1 to 10
Cc1cc(C)c2c(N)nc(NCCN3CC(C)OC(C)C3)nc2n1 (centres unmarked) [Example 151]	0 to 100	> 31.6
Cc1cc(C)c2c(N)nc(NCC3CN(C)CCO3)nc2n1 (centres unmarked) [Example 152]	100 to 3000	10 to 100
Cc1cc(C)c2c(N)nc(NC3CN(C)C3)nc2n1 [Example 153]	0 to 100	> 31.6
Cc1cc(C)c2c(N)nc(NCCCN(C)C)nc2n1 [Example 154]		1 to 10
Cc1cc(C)c2c(N)nc(N[C@H]3CCCC[C@@H]3N(C)C)nc2n1 [Example 155]	0 to 100	> 31.6
Cc1cc(C)c2c(N)nc(NCC3(N(C)C)CCOCC3)nc2n1 [Example 156]		1 to 10
Cc1cc(C)c2c(N)nc(NCC3CCN(C4CC4)C3)nc2n1 (centres unmarked) [Example 157]	100 to 3000	1 to 10
Cc1cc(C)c2c(N)nc(NC3CCN(Cc4ccccc4)CC3)nc2n1 [Example 158]	100 to 3000	0.1 to 1
Cc1cc(C)c2c(N)nc(NCCC3CCCN(C)C3)nc2n1 (centres unmarked) [Example 159]		1 to 10
Cc1cc(C)c2c(N)nc(NCCN3CCNC3=O)nc2n1 [Example 160]	0 to 100	> 100
Cc1cc(C)c2c(N)nc(NC[C@H]3CNCCO3)nc2n1 [Example 161]	100 to 3000	10 to 100
Cc1cc(C)c2c(N)nc(NCCNCC(F)(F)F)nc2n1 [Example 162]	0 to 100	> 31.6
Cc1cc(C)c2c(N)nc(NCCN3CC(F)C3)nc2n1 [Example 163]	100 to 3000	10 to 100
COCC1CN(CCNc2nc(N)c3c(C)cc(C)nc3n2)C1 [Example 164]	0 to 100	> 31.6
Cc1cc(C)c2c(N)nc(NCCN3CCC4(CCOCC4)C3)nc2n1 [Example 165]	0 to 100	> 31.6
Cc1cc(C)c2c(N)nc(NCCN3CC(C(F)(F)F)C3)nc2n1 [Example 166]	100 to 3000	10 to 100
Cc1cc(C)c2c(N)nc(NCCN3CC4(CCCO4)C3)nc2n1 [Example 167]	0 to 100	> 31.6
Cc1cc(C)c2c(N)nc(NCCNCC(F)F)nc2n1 [Example 168]	100 to 3000	10 to 100
Cc1cc(C)c2c(N)nc(NCCN3CC(F)(F)C3)nc2n1 [Example 169]	0 to 100	> 31.6
Cc1cc(C)c2c(N)nc(NCC3CCN(C)C3)nc2n1 (centres unmarked) [Example 170]	100 to 3000	10 to 100
Cc1cc(C)c2c(N)nc(NC3CC(C)(C)N(C)C(C)(C)C3)nc2n1 [Example 171]	100 to 3000	10 to 100
COCCN1CCC(Nc2nc(N)c3c(C)cc(C)nc3n2)CC1 [Example 172]	100 to 3000	10 to 100
Cc1cc(C)c2c(N)nc(NCCN3CCOCC3)nc2n1 [Example 173]	0 to 100	> 31.6

SMILES	Emax [%]	EC (100% of 200 uM G418 response) [µM]
Cc1cc(C)c2c(N)nc(NCC3CCCN(C)C3)nc2n1 (centres unmarked) [Example 174]	100 to 3000	10 to 100
Cc1cc(C)c2c(N)nc(NC3CCNC(C)C3)nc2n1 (centres unmarked) [Example 175]	100 to 3000	1 to 10
Cc1cc(C)c2c(N)nc(NC[C@@H]3CNCCO3)nc2n1 [Example 176]	100 to 3000	1 to 10
Cc1cc(C)c2c(N)nc(NC3C[C@H]4CC[C@@H](C3)N4)nc2n1 (some centres unmarked) [Example 177]	100 to 3000	0.1 to 1
Cc1cc(C)c2c(N)nc(NC3CCN(CC(F)(F)F)CC3)nc2n1 [Example 178]	0 to 100	> 100
Cc1cc(C)c2c(N)nc(NC3CCCN(C)CC3)nc2n1 (centres unmarked) [Example 179]	100 to 3000	1 to 10
Cc1cc(C)c2c(N)nc(N[C@@H]3CCNC[C@H]3O)nc2n1 [Example 180]	100 to 3000	1 to 10
Cc1cc(C)c2c(N)nc(N[C@@H]3CCCC[C@H]3N(C)C)nc2n1 [Example 181]	0 to 100	> 31.6
Cc1cc(C)c2c(N)nc(NC[C@@H]3CCCN3)nc2n1 [Example 182]	0 to 100	> 31.6
Cc1cc(C)c2c(N)nc(NCCN3CC4(CCOC4)C3)nc2n1 [Example 183]	0 to 100	> 31.6
Cc1cc(C)c2c(N)nc(NCCN3CCC3)nc2n1 [Example 184]	100 to 3000	10 to 100
Cc1cc(C)c2c(N)nc(NCCCNCC(F)(F)F)nc2n1 [Example 185]	0 to 100	> 31.6
Cc1cc(C)c2c(N)nc(NCCCN3CC(F)C3)nc2n1 [Example 186]	100 to 3000	10 to 100
Cc1cc(C)c2c(N)nc(NCCCN3CC4(CCOC4)C3)nc2n1 [Example 187]	100 to 3000	10 to 100
COCC1CN(CCCNc2nc(N)c3c(C)cc(C)nc3n2)C1 [Example 188]	0 to 100	> 31.6
Cc1cc(C)c2c(N)nc(NCCCN3CCC4(CCOCC4)C3)nc2n1 [Example 189]	0 to 100	> 31.6
Cc1cc(C)c2c(N)nc(NCCCN3CC(C(F)(F)F)C3)nc2n1 [Example 190]	100 to 3000	10 to 100
Cc1cc(C)c2c(N)nc(NCCCN3CCC3)nc2n1 [Example 191]	100 to 3000	10 to 100
Cc1cc(C)c2c(N)nc(NCCCN3CC4(CCCO4)C3)nc2n1 [Example 192]	0 to 100	> 31.6
Cc1cc(C)c2c(N)nc(NCCCNCC(F)F)nc2n1 [Example 193]	100 to 3000	10 to 100
Cc1cc(C)c2c(N)nc(NCCCN3Cc4ccccc4C3)nc2n1 [Example 194]	100 to 3000	10 to 100
Cc1cc(C)c2c(N)nc(NCCCN3CC(F)(F)C3)nc2n1 [Example 195]	0 to 100	> 31.6
Cc1cc(C)c2c(N)nc(NC3CC4CCC[C@H](C3)N4)nc2n1 (some centres unmarked) [Example 196]	100 to 3000	1 to 10
Cc1cc(C)c2c(N)nc(NC3CCN(C4COC4)CC3)nc2n1 [Example 197]	0 to 100	> 31.6

SMILES	Emax [%]	EC (100% of 200 uM G418 response) [µM]
Cc1cc(C)c2c(N)nc(N[C@H]3CN4CCC3CC4)nc2n1 [Example 198]	0 to 100	> 31.6
Cc1cc(C)c2c(N)nc(NCC3CNC3)nc2n1 [Example 199]	0 to 100	> 31.6
Cc1cc(C)c2c(N)nc(NC3CC4(CCNCC4)C3)nc2n1 [Example 200]	0 to 100	> 31.6
COc1ccc(CCN2CCC(Nc3nc(N)c4c(C)cc(C)nc4n3)CC2)cc1 [Example 201]	100 to 3000	1 to 10
Cc1cc(C)c2c(N)nc(NC3CC4(CNC4)C3)nc2n1 [Example 202]	100 to 3000	10 to 100
Cc1cc(C)c2c(N)nc(NC3C4CNC[C@@H]43)nc2n1 (some centres unmarked) [Example 203]	100 to 3000	1 to 10
Cc1cc(C)c2c(N)nc(NC3CCC(N(C)C)CC3)nc2n1 (centres unmarked) [Example 204]	100 to 3000	1 to 10
Cc1cc(C)c2c(N)nc(NC3CC4CNCC4C3)nc2n1 (centres unmarked) [Example 205]	100 to 3000	1 to 10
Cc1cc(C)c2c(N)nc(NC3CCNC[C@@H]3F)nc2n1 (some centres unmarked) [Example 206]	100 to 3000	1 to 10
Cc1cc(C)c2c(N)nc(NC3(CO)CCNCC3)nc2n1 [Example 207]	0 to 100	> 31.6
Cc1cc(C)c2c(N)nc(NCC3CC4(CNC4)C3)nc2n1 [Example 208]	0 to 100	> 31.6
Cc1cc(C)c2c(N)nc(N[C@H]3CN[C@H](C)C3)nc2n1 [Example 209]	100 to 3000	1 to 10
Cc1cc(C)c2c(N)nc(NC3COC4(CNC4)C3)nc2n1 (centres unmarked) [Example 210]	100 to 3000	1 to 10
Cc1cc(C)c2c(N)nc(NC3C[C@H]4CCC[C@@H](C3)N4C)nc2n1 (some centres unmarked) [Example 211]	100 to 3000	1 to 10
Cc1cc(C)c2c(N)nc(NC3CCNCC3(C)C)nc2n1 (centres unmarked) [Example 212]	100 to 3000	1 to 10
CCN1CCC(Nc2nc(N)c3c(C)cc(C)nc3n2)CC1 [Example 213]	100 to 3000	1 to 10
Cc1cc(C)c2c(N)nc(NC3CNC3)nc2n1 [Example 214]	0 to 100	> 31.6
Cc1cc(C)c2c(N)nc(N[C@H]3CCCN(Cc4ccccc4)C3)nc2n1 [Example 215]	100 to 3000	1 to 10
Cc1cc(C)c2c(N)nc(NC[C@@H]3CCNC3)nc2n1 [Example 217]		1 to 10
Cc1cc(C)c2c(N)nc(NC3C[C@H]4CC[C@@H](C3)N4C)nc2n1 (some centres unmarked) [Example 218]	100 to 3000	1 to 10
Cc1cc(C)c2c(N)nc(NC3(CN(C)C)CC3)nc2n1 [Example 219, N^2-(1-((dimethylamino)methyl)cyclopropyl)-5,7-dimethylpyrido[2,3-d]pyrimidine-2,4-diamine]	0 to 100	> 31.6
Cc1cc(C)c2c(N)nc(N[C@H]3CCNCC3(F)F)nc2n1 [Example 220]	100 to 3000	1 to 10
CCCN1CCC(Nc2nc(N)c3c(C)cc(C)nc3n2)CC1 [Example 221]		1 to 10
